Assay results published in publication PMC10354055, “An optimized Nurr1 agonist provides disease-modifying effects in Parkinson’s disease models” (Nature Communications, 2023).
Several values for one entry are separate records, joined by “and”; a condition that tells them apart may be missing. Equal values may be shown once.

Assays:
Nurr1-LBD point mutants [1] = target: T1, Nurr1-LBD point mutants (Mus musculus, UniProt Q06219); assay: Luciferase assay with point-mutants of Nurr1-LBD, SK-N-BE(2)C cells;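 note: Firefly luciferase normalized to beta-galactosidase activity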; format: cell-based; conditions: Fig. 1g, WT
T1 construct: expressed in transfected cells; host or cells: SK-N-BE(2)C
Method: (§1) Nurr1 transactivity was normalized to β-galactosidase activity.
(§2) Nurr1 mutants were generated using the QuikChange ǁ XL site-directed mutagenesis kit (Agilent Technologies) according to the manufacturer’s instruction. Mutagenesis reactions were carried out on the plasmid of mouse Nurr1 cloned into pcDNA3.1 backbone, and then verified by sequencing.

Nurr1-LBD point mutants [2] = target: T2, Nurr1-LBD point mutants (Mus musculus, UniProt Q06219, L593A); assay: as above; format: cell-based; conditions: Fig. 1g, L593A
T2 construct: expressed in transfected cells; host or cells: SK-N-BE(2)C
Method: as §1, §2

MPTP-induced male mice = assay: IHC/stereology of TH+ fibers, TH+ DA neurons and NeuN+ neurons, MPTP-induced mice; format: in vivo, mouse
Method: MPTP (Sigma-Aldrich) was intraperitoneally (i.p.) injected (30 mg/kg) for 5 days (Day 1-5). […] To test dyskinetic involuntary behavior, an L-DOPA injected group was included, which received 50 mg/kg of L-DOPA and 15 mg/kg of benserazide (Sigma-Aldrich) (i.p.) for 16 days (Day 1–16). All compounds were administered 6 h post-MPTP injection to avoid any effect of compounds on the MPTP metabolism in the brain. Motor and non-motor related behavior tests were performed on the following days as described in Fig. 4a in an assessor- and observer-blinded fashion. Pre-training and baseline setup for motor-related behaviors were performed 3 days prior to the injections. Mice were sacrificed and subjected to immunohistochemistry. Mice were housed at the Animal Care Facilities of McLean Hospital under a 12-h light/12-h dark cycle, ambient temperature and humidity. Animals were handled in accordance with McLean Hospital’s Institutional Animal Care and Use Committee (Protocol #: 2015N000002) and followed National Institutes of Health guidelines.
Images were acquired using a KEYENCE microscope and quantified as the number or optical density of immunoreactive cells using ImageJ software.
The numbers of TH^+ DA neurons, NeuN^+ neurons, pS129 αSyn^+ cells in the SN and Iba-1^+ microglia in the SN and striatum were stereologically counted in six coronal sections (30 µm thickness) taken every 6th section (180 µm intervals) for each brain. The boundaries of the SN and striatum were delimited at low magnification (4X) to estimate each total area. Immunoreactive cells were counted with images taken at high magnification (×40) by a single blinded investigator. The group mean of the total number of immunoreactive cells from each brain was transformed as percentage of the number in the control group (%). For AAV-αSyn-induced mice, the group mean of the total number of cells in the ipsilateral side was transformed as a percentage of that observed in the contralateral side.

[3] = system: AAV-αSyn-induced male mice; assay: Olfactory discrimination test, AAV-αSyn-induced PD model mice; format: in vivo, mouse
Excerpt: Adeno-associated viruses (AAVs) expressing GFP only or αSyn (wild-type or A53T) were kindly provided by Dr. Yoon Seong Kim from the University of Central Florida. Recombinant AAV vectors were produced using modified pAAV-IRES-hrGFP (Agilent) to express wild-type and mutant human αSyn under control of the CMV promoter. Viral particles (AAV2) were produced at the University of Iowa Viral Vector Core according to standard operating procedures (https://medicine.uiowa.edu/vectorcore/). […] AAV vectors were delivered into the substantia nigra unilaterally by stereotaxic surgery.
The olfactory discrimination test was designed based on Prediger et al.. Briefly, mice were placed in a chamber (40 (w) × 20 (d) × 20 (h) cm) segmented with two identical compartments containing fresh sawdust (non-familiar odor) on one side and unchanged sawdust (familiar odor; maintained for 3 days before the test) on the other side. Mice could choose between one or another area by freely passing through an open door, for 5 min. Mice movements were monitored with EthoVision XT version 7.0 (Noldus) and time (s) and distance (cm) traveled in each compartment were recorded and analyzed.

[4] = system: AAV-αSyn-induced male mice; assay: Western blot of human-αSyn in SNpc, AAV-αSyn-injected mice; format: in vivo, mouse
Method: Experiments were confirmed by duplicate measurements of the same sample. Quantification of immunoreactive bands was performed using ImageJ software (NIH, Bethesda, MD, USA) and expressed as a relative ratio against β-actin.
Adeno-associated viruses (AAVs) expressing GFP only or αSyn (wild-type or A53T) were kindly provided by Dr. Yoon Seong Kim from the University of Central Florida. Recombinant AAV vectors were produced using modified pAAV-IRES-hrGFP (Agilent) to express wild-type and mutant human αSyn under control of the CMV promoter. Viral particles (AAV2) were produced at the University of Iowa Viral Vector Core according to standard operating procedures (https://medicine.uiowa.edu/vectorcore/). Male C57BL/6 mice (8-10 weeks, 25-30 g; Jackson Laboratories) were randomly assigned to 7 groups including empty vector (GFP) + VEH, wild-type αSyn (αSyn^WT) + VEH, mutant αSyn (αSyn^A53T) + VEH, αSyn^WT + CQ, αSyn^A53T + CQ, αSyn^WT + 4A7C-301 and αSyn^A53T + 4A7C-301 (n = 8 per group). AAV vectors were delivered into the substantia nigra unilaterally by stereotaxic surgery. […] CQ (40 mg/kg/day) or 4A7C-301 (5 mg/kg/day) administration was started 4 weeks after AAV vector injections and continued for […] before sacrifice at 8 weeks after surgery.

T2 sequence (Q06219 whole entry L593A, the tested form may be a part): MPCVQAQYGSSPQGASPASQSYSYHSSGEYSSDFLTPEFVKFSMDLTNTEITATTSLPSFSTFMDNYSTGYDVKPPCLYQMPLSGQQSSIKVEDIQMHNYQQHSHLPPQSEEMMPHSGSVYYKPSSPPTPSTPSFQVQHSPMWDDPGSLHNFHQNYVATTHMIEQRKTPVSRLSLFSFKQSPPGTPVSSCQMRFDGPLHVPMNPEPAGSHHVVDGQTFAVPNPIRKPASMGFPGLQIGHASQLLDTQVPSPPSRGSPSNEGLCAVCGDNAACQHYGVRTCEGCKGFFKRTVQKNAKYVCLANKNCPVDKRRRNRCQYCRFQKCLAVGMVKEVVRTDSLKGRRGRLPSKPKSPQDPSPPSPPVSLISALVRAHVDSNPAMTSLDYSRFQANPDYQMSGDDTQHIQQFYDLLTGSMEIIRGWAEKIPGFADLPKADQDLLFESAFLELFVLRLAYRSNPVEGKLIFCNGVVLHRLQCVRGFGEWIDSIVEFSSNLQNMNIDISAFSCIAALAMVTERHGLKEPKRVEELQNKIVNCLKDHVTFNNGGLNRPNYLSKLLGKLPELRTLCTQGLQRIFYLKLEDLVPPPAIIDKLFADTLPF
T1 sequence (Q06219 whole entry, change not shown, the tested form may be a part): as the sequence (Q06219 whole entry L593A, the tested form may be a part) above, with A593L counted along it

For `CCN1CCN(c2cc(N3CCN(CC)CC3)nc(NCCNc3ccnc4cc(Cl)ccc34)n2)CC1` [4A7C-301, N^1-(4,6-bis(4-ethylpiperazin-1-yl)pyrimidin-2-yl)-N^2-(7-chloroquinolin-4-yl)ethane-1,2-diamine], the “Luciferase activity (fold)” value (Nurr1-LBD point mutants [1]) was 18.0755 fold and 17.4184 fold and 17.5507 fold and 18.6728 fold, the “Luciferase activity (fold)” value (Nurr1-LBD point mutants [2]) was 5.7 fold and 5.711 fold and 5.709 fold and 5.928 fold and the “TH+ neurons in SNpc (% of control)” value (MPTP-induced male mice; Figure 4j, MPTP-induced mice, individual animal values) was 63.18 % of control and 108.74 % of control and 134.92 % of control and 132.65 % of control and 112.51 % of control and 66.45 % of control and 53.87 % of control. The “NeuN+ neurons in SNpc (% of control)” value (MPTP-induced male mice; Figure 4k, MPTP-induced mice, individual animal values) was 85.48 % of control and 97.85 % of control and 98.38 % of control and 115.18 % of control, the “TH fiber density in STR (% of control)” value (MPTP-induced male mice; Figure 4h, MPTP-induced mice, individual animal values) was 116.18 % of control and 48.63 % of control and 93.47 % of control and 82.29 % of control and 106.49 % of control and 100.23 % of control and 91.26 % of control and the “TH+ fibers in STR, TH+ DA neurons and NeuN+ neurons in SN (in words)” value (MPTP-induced male mice; compared to MPTP only group) was “significantly retained”. For the same compound, the “olfactory dysfunction (in words)” value ([3]; αSynA53T-mice) was “significantly reversed”, the “olfactory dysfunction (in words)” value ([3]; αSynWT-mice, 6 and 8 weeks after surgery) was “rescued olfactory dysfunction” and the “accumulation of αSyn (in words)” value [4] was “significantly diminished”.
